The record followed here is patent publication US20140357662A1, “THIENO (2,3 - C) PYRAZOLES FOR USE AS POTASSIUM CHANNEL INHIBITORS” (XENTION LIMITED, priority 2011, published 2014).

The structures appear in SMILES notation.

The experiment has as its target T1, rat Kir3.1/3.4 (Rattus norvegicus, UniProt P48548+P63251).
T1 construct: expressed in transfected cells; host or cells: HEK293 (Human Embryonic Kidney 293), stably transfected
T1 sequence (P63251 1-501): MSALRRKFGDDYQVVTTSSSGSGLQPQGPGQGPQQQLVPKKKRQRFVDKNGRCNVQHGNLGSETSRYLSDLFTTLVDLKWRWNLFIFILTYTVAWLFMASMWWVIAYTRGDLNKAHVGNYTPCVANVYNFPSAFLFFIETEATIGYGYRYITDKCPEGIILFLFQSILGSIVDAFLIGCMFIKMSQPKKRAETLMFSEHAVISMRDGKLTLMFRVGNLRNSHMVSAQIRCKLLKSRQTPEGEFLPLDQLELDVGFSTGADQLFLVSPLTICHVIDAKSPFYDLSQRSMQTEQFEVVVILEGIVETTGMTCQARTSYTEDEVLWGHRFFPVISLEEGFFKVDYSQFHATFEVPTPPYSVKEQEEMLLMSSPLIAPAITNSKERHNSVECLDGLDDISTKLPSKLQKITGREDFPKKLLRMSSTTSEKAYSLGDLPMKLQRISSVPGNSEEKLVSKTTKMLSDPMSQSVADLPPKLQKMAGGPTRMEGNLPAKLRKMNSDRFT
T1 sequence (P48548 1-419): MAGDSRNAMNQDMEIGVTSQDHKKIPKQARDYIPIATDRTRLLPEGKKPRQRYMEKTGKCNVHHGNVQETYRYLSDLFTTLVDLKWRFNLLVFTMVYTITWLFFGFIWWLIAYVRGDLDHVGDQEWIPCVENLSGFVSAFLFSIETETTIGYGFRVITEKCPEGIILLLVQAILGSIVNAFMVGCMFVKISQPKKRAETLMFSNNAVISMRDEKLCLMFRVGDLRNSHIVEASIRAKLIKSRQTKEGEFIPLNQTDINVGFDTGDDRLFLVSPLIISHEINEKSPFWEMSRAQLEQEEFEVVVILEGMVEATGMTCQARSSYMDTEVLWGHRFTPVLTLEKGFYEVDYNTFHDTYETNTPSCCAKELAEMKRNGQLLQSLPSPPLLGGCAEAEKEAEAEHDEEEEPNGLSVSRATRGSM
Nature of the experiment: Kir3.1/3.4 Electrophysiology Method (manual whole-cell patch clamp). Type of experiment: cell-based. Conditions: Human Embryonic Kidney 293 stably transfected with rat Kir3.1/3.4; inhibition of leak-subtracted current at -140 mV. The protocol: Compound activity against the recombinant G-protein activated inward rectifier current encoded by the heterotetramer Kir3.1/3.4 was assessed using manual whole-cell patch technique. The heterotetramer forms the pore-forming channel that conducts the acetylcholine/adenosine-activated potassium current in the heart.
For whole-cell patch-clamp studies, cells (Human Embryonic Kidney 293 stably transfected with rat Kir3.1/3.4) were seeded onto glass coverslips before recordings were made. Cells were seeded in sterile 30 mm Petri dishes at a density to enable isolated cells to be selected for patch clamp experiments. The dishes were stored in a humidified, gassed (5% CO2) incubator at 37° C. until use.
Whole-cell patch-clamp recordings of membrane currents were made following gigaohm seal formation between the patch electrode and the cell using HEKA EPC-9/10 amplifiers controlled by Pulse Software (Ver8.5x/8.6x/8.7x, HEKA, Germany). Coverslips seeded with cells were placed in a recording chamber mounted on the stage of an inverted microscope. During the experiment, the cell of interest was continuously superfused with bather solution delivered via a cannula placed in close proximity to the cell to enable control of the extracellular solution environment. Only those cells with a current <−500 pA (current at −140 mV) were used for experiments. During experiments, series resistance was compensated by a minimum of 70%.
Electrophysiology voltage-step protocols and analysis of data were performed as follows. Data was sampled at 5 kHz, and filtered with a −3 dB bandwidth of 2.5 kHz. Cells were held at a voltage of −60 mV. Currents were evoked by a depolarising voltage step to +60 mV (100 ms) before a ramp-repolarisation (0.4 V·s^−1) to −140 mV (100 ms) before returning to −60 mV. The command waveform was repeatedly applied every 10 s throughout the experiment. Mean currents during 1-99% of the time at −140 mV were analysed using Pulsefit software (v8.x, HEKA, Germany). The voltage protocol was repeatedly applied to achieve a stable current baseline in bather before the test substance was superfused via the cannula in close proximity to the cell under investigation. The test substance was allowed to equilibrate during which time voltage protocol was repeatedly applied and recorded. On reaching steady-state inhibition, the cell was superfused with an identical bather solution containing zero external potassium chloride (replaced by equimolar NaCl). The identical current measurement was made in the absence of potassium to assess the passive leak at −140 mV. The leak current was subtracted from the control and steady-state drug current values. The percentage inhibition of the leak-subtracted current in the presence of test substance was calculated relative to the control leak-subtracted pre-drug value. Internal patch-pipette solution contained in mM: 110 KCl, 20 NaCl, 0.9 GTPγS, 5 Mg-ATP, 5 EGTA, 10 HEPES, pH7.2 corrected with KOH. The external superfusate composition in mM was: 150 (or 160) NaCl, 10 (or 0) KCl, 3 CaCl2, 1 MgCl, 10 HEPES, pH 7.4 corrected with NaOH.
With `CC(C)NC(=O)c1sc2[nH]nc(N3CCC(COCCN4CCCC4)CC3)c2c1-c1ccccc1` [Compound 24, N-isopropyl-4-phenyl-3-[4-(2-pyrrolidin-1-ylethoxymethyl)-1-piperidyl]-1H-thieno[2,3-c]pyrazole-5-carboxamide], the IC50 is < 500 nM.
The same measure for `CN(C)C(=O)c1sc2[nH]nc(N3CCC(COCCN4CCCC4)CC3)c2c1-c1ccccc1` [Compound 23, N,N-dimethyl-4-phenyl-3-[4-(2-pyrrolidin-1-ylethoxymethyl)-1-piperidyl]-1H-thieno[2,3-c]pyrazole-5-carboxamide]: 500 to 3000 nM; for `c1ccc(-c2csc3[nH]nc(N4C5CCC4CC(NC4CCC4)C5)c23)cc1` (centres unmarked) [Compound 10, N-cyclobutyl-8-(4-phenyl-1H-thieno[2,3-c]pyrazol-3-yl)-8-azabicyclo[3.2.1]octan-3-amine]: < 500 nM; for `c1ccc(-c2csc3[nH]nc(N4CC5CC4CC5OCCN4CCCC4)c23)cc1` (centres unmarked) [Compound 4, 4-phenyl-3-[5-(2-pyrrolidin-1-ylethoxy)-2-azabicyclo[2.2.1]heptan-2-yl]-1H-thieno[2,3-c]pyrazole]: < 500 nM.
The same measure for `CS(=O)(=O)n1nc(N2CCC(COCCN3CCCC3)CC2)c2c(-c3ccccc3)csc21` [Compound 20, 1-methylsulfonyl-4-phenyl-3-[4-(2-pyrrolidin-1-ylethoxymethyl)-1-piperidyl]thieno[2,3-c]pyrazole]: < 500 nM.
For `CC(=O)n1nc(N2CC3CC2CC3OCCN2CCCC2)c2c(-c3ccccc3)csc21` (centres unmarked) [Compound 14, 1-[4-phenyl-3-[5-(2-pyrrolidin-1-ylethoxy)-2-azabicyclo[2.2.1]heptan-2-yl]thieno[2,3-c]pyrazol-1-yl]ethanone] the value was < 500 nM; for `CNC(=O)c1sc2[nH]nc(N3CCC(COCCN4CCCC4)CC3)c2c1-c1ccccc1` [Compound 25, N-methyl-4-phenyl-3-[4-(2-pyrrolidin-1-ylethoxymethyl)-1-piperidyl]-1H-thieno[2,3-c]pyrazole-5-carboxamide], < 500 nM.
For `c1ccc(-c2csc3[nH]nc(N4CCC(COCCN5CCCC5)C4)c23)cc1` (centres unmarked) [Compound 9, 4-phenyl-3-[3-(2-pyrrolidin-1-ylethoxymethyl)pyrrolidin-1-yl]-1H-thieno[2,3-c]pyrazole], the concentration for half-maximal inhibition (IC50) is < 500 nM.
For `c1ccc(-c2csc3[nH]nc(N4C5CCC4CC(OCCN4CCCC4)C5)c23)cc1` (centres unmarked) [Compound 7, 4-phenyl-3-[3-(2-pyrrolidin-1-ylethoxy)-8-azabicyclo[3.2.1]octan-8-yl]-1H-thieno[2,3-c]pyrazole] the value was < 500 nM.
For `CC(C)NC1CC2CCC(C1)N2c1n[nH]c2scc(-c3ccccc3)c12` (centres unmarked) [Compound 12, N-isopropyl-8-(4-phenyl-1H-thieno[2,3-c]pyrazol-3-yl)-8-azabicyclo[3.2.1]octan-3-amine] the value was 500 to 3000 nM; for `CC(=O)n1nc(N2CCC(COCCN3CCCC3)C2)c2c(-c3ccccc3)csc21` (centres unmarked) [Compound 19, 1-[4-phenyl-3-[3-(2-pyrrolidin-1-ylethoxymethyl)pyrrolidin-1-yl]thieno[2,3-c]pyrazol-1-yl]ethanone], < 500 nM; for `Cn1nc(N2CCC(COCCN3CCCC3)CC2)c2c(-c3ccccc3)csc21` [Compound 21, 1-methyl-4-phenyl-3-[4-(2-pyrrolidin-1-ylethoxymethyl)-1-piperidyl]thieno[2,3-c]pyrazole], < 500 nM.
Consider `CC(=O)n1nc(N2CCC(COCCN3CCCC3)CC2)c2c(-c3ccccc3)csc21` [Compound 13, 1-[4-phenyl-3-[4-(2-pyrrolidin-1-ylethoxymethyl)-1-piperidyl]thieno[2,3-c]pyrazol-1-yl]ethanone], for which the IC50 was < 500 nM.
The same measure for `CC(=O)n1nc(N2C3CCC2CC(OCCN2CCCC2)C3)c2c(-c3ccccc3)csc21` (centres unmarked) [Compound 17, 1-[4-phenyl-3-[3-(2-pyrrolidin-1-ylethoxy)-8-azabicyclo[3.2.1]octan-8-yl]thieno[2,3-c]pyrazol-1-yl]ethanone]: < 500 nM.
